Assay results: patent publication US9340590B2 (priority 2011, dated 2016)
Like-named read-outs stand apart in the source and are kept apart here. Positions of bridges follow the written chain, without caps; N, C: chain ends. Non-standard residues stand in square brackets, D forms with d. Residues, ends and D or L forms follow the SMILES beside them. NMeW = CN[C@@H](Cc1c[nH]c2ccccc12)C(=O)O

Assays:
Assay in all cases: cell-based
hNav1.3 = hNav1.3 (Homo sapiens, UniProt Q9NY46); settings: IonWorks Quattro, read-out: IWQ Use Nav1.3
hNav1.3, sequence (Q9NY46 whole entry, looked up): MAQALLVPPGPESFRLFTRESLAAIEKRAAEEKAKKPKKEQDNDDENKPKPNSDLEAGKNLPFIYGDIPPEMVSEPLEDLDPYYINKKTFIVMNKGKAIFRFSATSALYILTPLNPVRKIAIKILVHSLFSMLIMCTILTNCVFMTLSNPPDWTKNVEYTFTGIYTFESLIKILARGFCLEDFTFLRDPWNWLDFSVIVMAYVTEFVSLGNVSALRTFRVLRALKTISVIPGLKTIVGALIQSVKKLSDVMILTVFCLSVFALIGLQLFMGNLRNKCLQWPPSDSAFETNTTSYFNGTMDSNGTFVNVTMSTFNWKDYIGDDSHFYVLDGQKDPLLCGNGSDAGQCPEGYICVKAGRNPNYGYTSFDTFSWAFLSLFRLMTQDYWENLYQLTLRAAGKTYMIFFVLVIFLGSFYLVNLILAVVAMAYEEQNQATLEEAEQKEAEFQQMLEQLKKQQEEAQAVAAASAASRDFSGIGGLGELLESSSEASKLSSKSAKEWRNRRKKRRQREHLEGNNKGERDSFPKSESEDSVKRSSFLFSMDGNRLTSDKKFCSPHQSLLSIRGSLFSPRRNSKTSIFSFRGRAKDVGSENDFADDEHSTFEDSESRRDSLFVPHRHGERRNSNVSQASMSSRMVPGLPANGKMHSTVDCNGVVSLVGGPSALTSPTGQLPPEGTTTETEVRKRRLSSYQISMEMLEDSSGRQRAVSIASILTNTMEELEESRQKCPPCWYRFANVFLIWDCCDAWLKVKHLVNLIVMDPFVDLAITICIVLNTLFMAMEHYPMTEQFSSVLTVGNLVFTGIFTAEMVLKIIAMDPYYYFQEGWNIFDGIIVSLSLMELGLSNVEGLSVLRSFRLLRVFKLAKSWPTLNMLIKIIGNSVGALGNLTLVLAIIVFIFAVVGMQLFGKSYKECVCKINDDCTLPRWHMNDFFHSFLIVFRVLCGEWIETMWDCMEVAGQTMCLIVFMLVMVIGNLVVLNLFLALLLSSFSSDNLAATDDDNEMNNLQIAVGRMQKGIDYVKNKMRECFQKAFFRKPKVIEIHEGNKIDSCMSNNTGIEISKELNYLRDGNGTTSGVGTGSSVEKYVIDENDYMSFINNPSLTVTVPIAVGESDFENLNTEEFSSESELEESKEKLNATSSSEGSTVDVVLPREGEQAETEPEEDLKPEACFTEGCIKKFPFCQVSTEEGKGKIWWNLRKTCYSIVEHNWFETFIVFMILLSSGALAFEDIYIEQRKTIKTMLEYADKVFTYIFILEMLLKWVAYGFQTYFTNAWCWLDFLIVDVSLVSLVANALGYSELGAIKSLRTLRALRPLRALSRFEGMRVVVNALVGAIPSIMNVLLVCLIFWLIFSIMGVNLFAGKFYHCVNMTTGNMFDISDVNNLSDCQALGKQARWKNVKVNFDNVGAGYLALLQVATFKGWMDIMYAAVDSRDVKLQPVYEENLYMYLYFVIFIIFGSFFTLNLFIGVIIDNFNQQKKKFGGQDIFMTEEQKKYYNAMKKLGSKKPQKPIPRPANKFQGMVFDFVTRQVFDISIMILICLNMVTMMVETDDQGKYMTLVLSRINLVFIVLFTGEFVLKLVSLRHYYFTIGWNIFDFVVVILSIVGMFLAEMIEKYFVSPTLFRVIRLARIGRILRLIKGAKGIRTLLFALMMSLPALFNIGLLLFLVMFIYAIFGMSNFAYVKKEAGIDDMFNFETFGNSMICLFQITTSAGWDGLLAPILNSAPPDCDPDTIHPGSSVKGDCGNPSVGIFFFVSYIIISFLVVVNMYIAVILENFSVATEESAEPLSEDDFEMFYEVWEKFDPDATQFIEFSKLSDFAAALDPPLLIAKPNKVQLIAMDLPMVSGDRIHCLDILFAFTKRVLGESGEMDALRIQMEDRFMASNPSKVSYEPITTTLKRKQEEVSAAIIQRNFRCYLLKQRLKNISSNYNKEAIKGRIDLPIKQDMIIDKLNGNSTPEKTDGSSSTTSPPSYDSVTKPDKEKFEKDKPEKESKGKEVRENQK

hNav1.5 = hNav1.5 (Homo sapiens, UniProt Q14524)
hNav1.7 = hNav1.7 (Homo sapiens, UniProt Q15858); type: cell-based; settings: IonWorks Quattro, read-out: IWQ Use Nav1.7
hNav1.7, sequence (Q15858 whole entry, looked up): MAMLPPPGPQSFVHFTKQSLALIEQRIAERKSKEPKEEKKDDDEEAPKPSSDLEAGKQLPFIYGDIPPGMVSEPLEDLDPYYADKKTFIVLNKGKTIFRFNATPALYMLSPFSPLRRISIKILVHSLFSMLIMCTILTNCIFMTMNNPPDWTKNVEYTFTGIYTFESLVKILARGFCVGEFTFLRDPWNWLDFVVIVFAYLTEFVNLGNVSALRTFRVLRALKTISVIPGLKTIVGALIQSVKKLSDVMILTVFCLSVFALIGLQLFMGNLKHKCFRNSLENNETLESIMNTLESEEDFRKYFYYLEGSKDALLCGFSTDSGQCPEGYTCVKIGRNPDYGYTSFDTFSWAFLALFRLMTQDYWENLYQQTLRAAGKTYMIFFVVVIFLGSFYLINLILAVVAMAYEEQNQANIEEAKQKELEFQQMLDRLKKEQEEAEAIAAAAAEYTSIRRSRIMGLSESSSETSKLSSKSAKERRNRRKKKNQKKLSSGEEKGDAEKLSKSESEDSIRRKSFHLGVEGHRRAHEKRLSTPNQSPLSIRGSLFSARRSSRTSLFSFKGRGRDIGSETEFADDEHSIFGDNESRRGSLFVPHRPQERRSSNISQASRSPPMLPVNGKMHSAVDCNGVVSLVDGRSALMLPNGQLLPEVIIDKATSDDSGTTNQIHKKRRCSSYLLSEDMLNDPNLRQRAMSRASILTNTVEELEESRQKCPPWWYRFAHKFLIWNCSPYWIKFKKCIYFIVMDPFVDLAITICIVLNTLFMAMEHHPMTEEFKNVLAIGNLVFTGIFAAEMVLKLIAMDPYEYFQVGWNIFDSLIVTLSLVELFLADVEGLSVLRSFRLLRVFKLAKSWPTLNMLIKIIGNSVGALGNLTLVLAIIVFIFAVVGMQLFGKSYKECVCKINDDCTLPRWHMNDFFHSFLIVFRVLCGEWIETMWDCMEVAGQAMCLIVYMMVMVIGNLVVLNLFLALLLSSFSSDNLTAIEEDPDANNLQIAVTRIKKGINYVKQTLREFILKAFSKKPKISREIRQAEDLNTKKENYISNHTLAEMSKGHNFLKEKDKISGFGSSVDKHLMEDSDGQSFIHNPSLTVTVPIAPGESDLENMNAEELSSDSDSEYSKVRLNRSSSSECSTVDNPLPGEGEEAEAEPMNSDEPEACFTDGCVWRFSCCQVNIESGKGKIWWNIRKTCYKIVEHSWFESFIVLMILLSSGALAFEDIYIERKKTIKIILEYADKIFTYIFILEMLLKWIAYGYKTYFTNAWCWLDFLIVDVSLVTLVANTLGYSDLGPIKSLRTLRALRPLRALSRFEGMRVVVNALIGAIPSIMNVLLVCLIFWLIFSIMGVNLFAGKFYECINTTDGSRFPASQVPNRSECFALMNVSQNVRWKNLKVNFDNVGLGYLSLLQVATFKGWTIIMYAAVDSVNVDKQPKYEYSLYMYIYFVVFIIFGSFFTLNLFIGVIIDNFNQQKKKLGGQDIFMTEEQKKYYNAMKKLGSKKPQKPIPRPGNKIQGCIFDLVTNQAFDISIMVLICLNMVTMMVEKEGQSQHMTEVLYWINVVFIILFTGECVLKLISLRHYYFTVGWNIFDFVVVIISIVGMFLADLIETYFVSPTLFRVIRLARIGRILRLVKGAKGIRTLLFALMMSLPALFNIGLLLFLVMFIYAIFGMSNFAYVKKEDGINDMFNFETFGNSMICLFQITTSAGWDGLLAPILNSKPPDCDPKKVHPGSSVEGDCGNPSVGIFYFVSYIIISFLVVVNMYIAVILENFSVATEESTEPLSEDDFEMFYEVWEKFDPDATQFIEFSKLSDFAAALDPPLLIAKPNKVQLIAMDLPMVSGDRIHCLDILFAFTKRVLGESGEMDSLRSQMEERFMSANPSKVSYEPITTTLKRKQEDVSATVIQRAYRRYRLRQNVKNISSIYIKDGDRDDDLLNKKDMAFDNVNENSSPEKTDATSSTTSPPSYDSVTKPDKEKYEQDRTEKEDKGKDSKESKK

[1] = clamped to −110 mV, depolarized to −10 mV, 5 min after compound, n=2
[2] = IonWorks Quattro, clamped to −110 mV, depolarized to −10 mV, 5 min after compound, n=2, read-out: IWQ Use Nav1.5
[3] = use-dependent protocol, hNav1.3
[4] = use-dependent protocol, hNav1.7

## CC[C@H](C)[C@@H]1NC(=O)[C@@H]2CSSC[C@@H]3NC(=O)[C@H](C(C)C)NC(=O)[C@H](CC(C)C)NC(=O)[C@H](CC(N)=O)NC(=O)[C@@H]4CCCN4C(=O)[C@H](CCCNC(=N)N)NC(=O)[C@H](CSSC[C@H](NC(=O)[C@@H](N)CC(=O)O)C(=O)N[C@@H](CC(C)C)C(=O)NCC(=O)N[C@@H](Cc4ccccc4)C(=O)N[C@@H](Cc4ccc(C(=O)O)cc4)C(=O)N[C@@H](CCCNC(=N)N)C(=O)N[C@@H](CCCCN)C(=O)N2)NC(=O)[C@H](CSSC[C@@H](C(=O)N[C@@H](CCCCN)C(=O)N[C@@H](Cc2ccc(O)cc2)C(=O)N[C@H](C(=O)N[C@@H](Cc2ccccc2)C(N)=O)C(C)C)NC(=O)[C@H](Cc2c[nH]c4ccccc24)NC(=O)[C@H](CCCCN)NC(=O)[C@H](Cc2c[nH]cn2)NC(=O)[C@H]([C@@H](C)O)NC(=O)[C@H](CCCNC(=N)N)NC(=O)[C@H](CO)NC3=O)NC(=O)[C@H](CCCCN)NC(=O)[C@H](CC(=O)O)NC(=O)[C@H](CC(N)=O)NC(=O)[C@H](CC(=O)O)NC(=O)[C@@H]2CCCN2C1=O [SEQ ID NO: 293]
hNav1.3; [1]
  IC50: 13.8 µM
hNav1.5; [2]
  IC50: 11.1 µM
hNav1.7; [1]
  IC50: 15.8 µM

## CC[C@H](C)[C@@H]1NC(=O)[C@@H]2CSSC[C@@H]3NC(=O)[C@H](C(C)C)NC(=O)[C@H](CC(C)C)NC(=O)[C@H](CC(N)=O)NC(=O)[C@@H]4CCCN4C(=O)[C@H](CCCNC(=N)N)NC(=O)[C@H](CSSC[C@H](NC(=O)[C@@H](N)CC(=O)O)C(=O)N[C@@H](CC(C)C)C(=O)NCC(=O)N[C@@H](Cc4ccccc4)C(=O)N[C@@H](CCSC)C(=O)N[C@@H](CCCNC(=N)N)C(=O)N[C@@H](CCCCN)C(=O)N2)NC(=O)[C@H](CSSC[C@@H](C(=O)N[C@@H](CCCCN)C(=O)N[C@@H](Cc2ccc(O)cc2)C(=O)N[C@H](C(=O)N[C@@H](Cc2ccccc2)C(N)=O)[C@@H](C)O)NC(=O)[C@H](Cc2c[nH]c4ccccc24)NC(=O)[C@H](CCCCN)NC(=O)[C@H](Cc2c[nH]cn2)NC(=O)[C@H]([C@@H](C)O)NC(=O)[C@H](CCCNC(=N)N)NC(=O)[C@H](CO)NC3=O)NC(=O)[C@H](CCCCN)NC(=O)[C@H](CC(=O)O)NC(=O)[C@H](CC(N)=O)NC(=O)[C@H](CC(=O)O)NC(=O)[C@@H]2CCCN2C1=O [compound 396] (H-DCLGFMRKCIPDNDKCCRPNLVCSRTHKWCKYTF-NH2; disulfide 2-17, 9-23, 16-30)
hNav1.3; Table 26, use, […]
  IC50: 0.04 µM
hNav1.5; Table 26, IonWorks Quattro, use, […], read-out: IWQ Use Nav1.5
  IC50: 3.78 µM
hNav1.7; Table 26, use, […]
  IC50: 0.02 µM

## CC[C@H](C)[C@@H]1NC(=O)[C@@H]2CSSC[C@@H]3NC(=O)[C@H](C(C)C)NC(=O)[C@H](CC(C)C)NC(=O)[C@H](CC(N)=O)NC(=O)[C@@H]4CCCN4C(=O)[C@H](CCCNC(=N)N)NC(=O)[C@H](CSSC[C@H](NC(=O)[C@@H](N)CC(=O)O)C(=O)N[C@@H](CC(C)C)C(=O)NCC(=O)N[C@@H](c4ccccc4)C(=O)N[C@@H](CCSC)C(=O)N[C@@H](CCCNC(=N)N)C(=O)N[C@@H](CCCCN)C(=O)N2)NC(=O)[C@H](CSSC[C@@H](C(=O)N[C@@H](CCCCN)C(=O)N[C@@H](Cc2ccc(O)cc2)C(=O)N[C@H](C(=O)N[C@@H](Cc2ccccc2)C(N)=O)C(C)C)NC(=O)[C@H](Cc2c[nH]c4ccccc24)NC(=O)[C@H](CCCCN)NC(=O)[C@H](Cc2c[nH]cn2)NC(=O)[C@H]([C@@H](C)O)NC(=O)[C@H](CCCNC(=N)N)NC(=O)[C@H](CO)NC3=O)NC(=O)[C@H](CCCCN)NC(=O)[C@H](CC(=O)O)NC(=O)[C@H](CC(N)=O)NC(=O)[C@H](CC(=O)O)NC(=O)[C@@H]2CCCN2C1=O [SEQ ID NO: 275]
hNav1.3; [1]
  IC50: 0.17 µM
hNav1.5; [2]
  IC50: > 5 µM
hNav1.7; [1]
  IC50: 0.09 µM

## CC[C@H](C)[C@@H]1NC(=O)[C@@H]2CSSC[C@@H]3NC(=O)[C@H](C(C)C)NC(=O)[C@H](CC(C)C)NC(=O)[C@H](CC(N)=O)NC(=O)[C@@H]4CCCN4C(=O)[C@H](CCCNC(=N)N)NC(=O)[C@H](CSSC[C@H](NC(=O)[C@@H](N)CC(=O)O)C(=O)N[C@@H](CC(C)C)C(=O)NCC(=O)N[C@@H](C)C(=O)N[C@@H](CC(C)C)C(=O)N[C@@H](CCCNC(=N)N)C(=O)N[C@@H](CCCCN)C(=O)N2)NC(=O)[C@H](CSSC[C@@H](C(=O)N[C@@H](CCCCN)C(=O)N[C@@H](Cc2ccc(O)cc2)C(=O)N[C@H](C(=O)N[C@@H](Cc2ccccc2)C(=O)O)C(C)C)NC(=O)[C@H](Cc2c[nH]c4ccccc24)NC(=O)[C@H](CC(N)=O)NC(=O)[C@H](Cc2c[nH]cn2)NC(=O)[C@H]([C@@H](C)O)NC(=O)[C@H](CCCNC(=N)N)NC(=O)[C@H](CO)NC3=O)NC(=O)[C@H](CCCCN)NC(=O)[C@H](CC(=O)O)NC(=O)[C@H](CC(N)=O)NC(=O)[C@H](CC(=O)O)NC(=O)[C@@H]2CCCN2C1=O [compound 601] (H-DCLGALRKCIPDNDKCCRPNLVCSRTHNWCKYVF-OH; disulfide 2-17, 9-23, 16-30)
hNav1.3; use-dependent block, hNav1.3
  IC50: 2.6 µM
hNav1.5; IonWorks Quattro, use-dependent block, hNav1.5, read-out: IWQ Use Nav1.5
  IC50: 10 µM
hNav1.7; use-dependent block, hNav1.7
  IC50: > 5 µM

## CC[C@H](C)[C@@H]1NC(=O)[C@@H]2CSSC[C@@H]3NC(=O)[C@H](C(C)C)NC(=O)[C@H](CC(C)C)NC(=O)[C@H](CC(N)=O)NC(=O)[C@@H]4CCCN4C(=O)[C@H](CCCNC(=N)N)NC(=O)[C@H](CSSC[C@H](NC(=O)[C@@H](N)CC(=O)O)C(=O)N[C@@H](CC(C)C)C(=O)NCC(=O)N[C@@H](Cc4ccc(C)cc4)C(=O)N[C@@H](CC(C)C)C(=O)N[C@@H](CCCNC(=N)N)C(=O)N[C@@H](CCCCN)C(=O)N2)NC(=O)[C@H](CSSC[C@@H](C(=O)N[C@@H](CCCCN)C(=O)N[C@@H](Cc2ccc(O)cc2)C(=O)N[C@H](C(=O)N[C@@H](Cc2ccccc2)C(N)=O)C(C)C)NC(=O)[C@H](Cc2c[nH]c4ccccc24)NC(=O)[C@H](CCCCN)NC(=O)[C@H](Cc2c[nH]cn2)NC(=O)[C@H]([C@@H](C)O)NC(=O)[C@H](CCCNC(=N)N)NC(=O)[C@H](CO)NC3=O)NC(=O)[C@H](CCCCN)NC(=O)[C@H](CC(=O)O)NC(=O)[C@H](CC(N)=O)NC(=O)[C@H](CC(=O)O)NC(=O)[C@@H]2CCCN2C1=O [compound 670]
hNav1.3; [3]
  IC50: 0.055 µM
hNav1.5; IonWorks Quattro, use-dependent protocol, hNav1.5, read-out: IWQ Use Nav1.5
  IC50: > 5 µM
hNav1.7; [4]
  IC50: 0.19 µM

## CC[C@H](C)[C@@H]1NC(=O)[C@@H]2CSSC[C@@H]3NC(=O)[C@H](C(C)C)NC(=O)[C@H](CC(C)C)NC(=O)[C@H](CC(N)=O)NC(=O)[C@@H]4CCCN4C(=O)[C@H](CCCNC(=N)N)NC(=O)[C@H](CSSC[C@H](NC(=O)[C@@H](N)CC(=O)O)C(=O)N[C@@H](CC(C)C)C(=O)NCC(=O)N[C@@H](Cc4ccccc4)C(=O)N[C@@H](CCSC)C(=O)N[C@@H](CCCNC(=N)N)C(=O)N[C@@H](CCCCN)C(=O)N2)NC(=O)[C@H](CSSC[C@@H](C(=O)N[C@@H](CCCCN)C(=O)N(C)[C@@H](Cc2c[nH]c4ccccc24)C(=O)N[C@H](C(=O)N[C@@H](Cc2ccccc2)C(N)=O)C(C)C)NC(=O)[C@H](Cc2c[nH]c4ccccc24)NC(=O)[C@H](CCCCN)NC(=O)[C@H](Cc2c[nH]cn2)NC(=O)[C@H]([C@@H](C)O)NC(=O)[C@H](CCCNC(=N)N)NC(=O)[C@H](CO)NC3=O)NC(=O)[C@H](CCCCN)NC(=O)[C@H](CC(=O)O)NC(=O)[C@H](CC(N)=O)NC(=O)[C@H](CC(=O)O)NC(=O)[C@@H]2CCCN2C1=O [compound 371] (H-DCLGFMRKCIPDNDKCCRPNLVCSRTHKWCK[NMeW]VF-NH2; disulfide 2-17, 9-23, 16-30)
hNav1.3; Table 25, use, […]
  IC50: > 5 µM
hNav1.5; Table 25, IonWorks Quattro, use, […], read-out: IWQ Use Nav1.5
  IC50: > 5 µM
hNav1.7; Table 25, use, […]
  IC50: 4.88 µM

## CC[C@H](C)[C@@H]1NC(=O)[C@@H]2CSSC[C@@H]3NC(=O)[C@H](C(C)C)NC(=O)[C@H](CC(C)C)NC(=O)[C@H](CC(N)=O)NC(=O)[C@@H]4CCCN4C(=O)[C@H](CCCNC(=N)N)NC(=O)[C@H](CSSC[C@H](NC(=O)[C@@H](N)CC(=O)O)C(=O)N[C@@H](CC(C)C)C(=O)NCC(=O)N[C@@H](C(C)(C)C)C(=O)N[C@@H](CCSC)C(=O)N[C@@H](CCCNC(=N)N)C(=O)N[C@@H](CCCCN)C(=O)N2)NC(=O)[C@H](CSSC[C@@H](C(=O)N[C@@H](CCCCN)C(=O)N[C@@H](Cc2ccc(O)cc2)C(=O)N[C@H](C(=O)N[C@@H](Cc2ccccc2)C(N)=O)C(C)C)NC(=O)[C@H](Cc2c[nH]c4ccccc24)NC(=O)[C@H](CCCCN)NC(=O)[C@H](Cc2cnc[nH]2)NC(=O)[C@H]([C@@H](C)O)NC(=O)[C@H](CCCNC(=N)N)NC(=O)[C@H](CO)NC3=O)NC(=O)[C@H](CCCCN)NC(=O)[C@H](CC(=O)O)NC(=O)[C@H](CC(N)=O)NC(=O)[C@H](CC(=O)O)NC(=O)[C@@H]2CCCN2C1=O [compound 678]
hNav1.3; [3]
  IC50: 1.36 µM
hNav1.5; IWQ Use Nav1.5
  IC50: > 5 µM
hNav1.7; [4]
  IC50: 0.7 µM
